Assay results as given in ChEMBL document CHEMBL3507680, “University of Dundee, Gates Library screen for HepG2 cell viability”.

Experiment: Human HepG2 cell viability assay in 384 well format
Format: toxicity, cell-based
Design: dose 125 nL, time 70.5 hour; cytotoxicity at 70.5 h: concentration not given beside the values
Conditions: HepG2 cells, read-out: Inhibition

Row | Compound | cytotoxicity at 70.5 h
1 | c1cc(CN2CCCCC2)cc(NCc2cc[nH]n2)c1 | 7.51%
2 | Cc1ccccc1CN(CC(=O)O)C(=O)COCC1CC1 | 0.683%
3 | CC(C)n1ncc2c1NC(=O)C(C#N)C21CCCC1 (configuration not stated) | -11.3%
4 | CCn1ncc2c1NC(=O)C(C#N)C21CCCC1 (configuration not stated) | -11.6%
5 | N#CC1C(=O)Nc2c(cnn2C2CCCC2)C12CCCCC2 (configuration not stated) | -1.92%
6 | CC(C)C(NC(=O)c1ccc(Cl)cc1Cl)C(=O)Nc1cnn(C)c1 (configuration not stated) | 4.14%
7 | O=C(NCc1ccnc(O)c1)NCC1CCCC1 | -1.59%
8 | COCC(=O)NCCc1ccc(I)s1 | -8.78%
9 | CC(C)COCC(NC(=O)CSc1nnc[nH]1)c1ccco1 (configuration not stated) | -12.5%
10 | CC(C)(C)C(O)CN1CCN(CC(=O)NC2CCOCC2)CC1 (configuration not stated) | -7.28%
11 | CCOc1cc(NC(=O)NCCn2cnnc2CC)ccc1C | -6.28%
12 | CCc1nc2n(n1)CCCC2NC(=O)Nc1ccc(F)cc1C#N (configuration not stated) | 1.79%
13 | CC(C)(C)OC(=O)NC1(c2noc(-c3ccoc3)n2)CCC1 | -6.71%
14 | CCc1nc2n(n1)CCCC2NC(=O)Nc1cccc(F)c1F (configuration not stated) | 4.24%
15 | CNC(=O)CC1CCN(C(=O)Nc2ccc(-c3cc[nH]n3)cc2)CC1 | -4.66%
16 | O=S(=O)(Cc1ccccc1)NCc1ccnc(O)c1 | 0.635%
17 | O=S(=O)(CC1CCCCC1)NCc1ccc(O)nc1 | -10.2%
18 | CN1CCN(S(C)(=O)=O)Cc2cccnc21 | -2.81%
19 | c1cc(CN2CCCC3(CCN(CC4CCCO4)CC3)C2)n[nH]1 (configuration not stated) | -6.85%
20 | O=S(=O)(C1CC1)N1CCC2(CN(c3ncccn3)C2)C1 | 9.33%
21 | Cc1nc(CO[C@H]2CN(C(=O)c3cccnc3)[C@@H]3COC[C@H]23)cs1 | -6.99%
22 | Cn1cnc2c(-c3cccnc3)nc(C3CCN(S(C)(=O)=O)CC3)cc21 | -8.84%
23 | Cc1ccc(CN2CC[C@H]3CO[C@H](CN(C)C)[C@H]3C2)o1 | -11.2%
24 | COCCNC(=O)[C@]12COC[C@H]1CN(C1CCOCC1)C2 | 10.6%
25 | CN1C(=O)CC(c2ccccc2)C12CCN(c1ncccn1)CC2 (configuration not stated) | 27.6%
26 | CC(C)NC(=O)N1C[C@H]2C[C@H](C(=O)N3CCCC3)[C@@H](C1)O2 | 21.9%

Row | Compound | cytotoxicity at 70.5 h
27 | COCCN1C[C@@H]2CN(c3cnccn3)C[C@@H]2C1=O | -10.9%
28 | O=C(Cc1ccco1)N1C[C@@H]2COC[C@]2(COCC2CCOCC2)C1 | -7.33%
29 | CC(C)[C@H]1CN(Cc2ccccn2)C[C@@H]1NS(=O)(=O)C1CC1 | -3.34%
30 | CCCOC1CCCN(c2ncnc3c2CCN(C(=O)C2CC2)C3)C1 (configuration not stated) | -7.75%
31 | COc1cc2c(cc1CNC(=O)C(C)n1ccnc1C(C)C)CCC2 (configuration not stated) | -11.2%
32 | Cc1nc(CN2CCN(c3cc(CCN)ncn3)CC2)cs1 | -2.73%
33 | Cc1nc(C)n(CCCNc2ncnc(C)c2C)n1 | 18%
34 | Cc1nn(CCO)c(C)c1-c1cc(C(C)(C)C)nc(N)c1C#N | 16.9%
35 | Cc1ccnc(N2Cc3cnn(Cc4ccc(F)cc4)c3C2)n1 | 15.1%
36 | N[C@H]1CN(C(=O)CCCc2ccc(F)cc2)C[C@@H]1C1CC1 | -6.92%
37 | CN(C)CCCN(C)C1CCN(c2cccc(-c3cscn3)c2)CC1 | -2.04%
38 | O=C(O)C1(Cc2ccccc2F)CCCN(c2ncnc3[nH]ccc23)C1 (configuration not stated) | -0.879%
39 | CC(=O)NCc1cc2n(n1)CCN(Cc1cccc(Cl)c1Cl)C2 | 0.275%
40 | CC(C)c1noc(CN(C)C(=O)c2ncn[nH]2)n1 | 3.61%
41 | CC1CCc2n[nH]c(C(=O)NCCc3ccco3)c2C1 (configuration not stated) | -2.98%
42 | Cc1c(C(=O)N2CCCC(O)(CN(C)C)CC2)c2cc(O)ccc2n1C (configuration not stated) | 13.3%
43 | Cc1nnc(SCCNc2cc(C3CC3)ncn2)s1 | -5.85%
44 | COc1ccc(-c2nc(C3CCNCC3)cc3c2ncn3C)cc1 | 11.7%
45 | c1cncc(CNc2ccc3nc(C4CCNCC4)nn3c2)c1 | -4.24%
46 | COc1cc(N2CCCC3(CCN(c4cccnc4)C3=O)C2)ncn1 (configuration not stated) | 19.9%
47 | CS(=O)(=O)N1C[C@H](C(=O)Nc2cccnc2)[C@@H]2CCO[C@@H]2C1 | -4.86%
48 | Cc1cnc(C(=O)N2CCC3(CCN3Cc3ccc(F)cc3)C2)cn1 (configuration not stated) | -0.513%
49 | O=c1ccc2c(n1CC1CC1)CCC(NCc1cccs1)C2 (configuration not stated) | -10.4%
50 | Cn1cc(-c2ncnc3c2CCN(CC2CCOC2)CC3)cn1 (configuration not stated) | -7.49%
51 | Cc1ccc(CN2CC[C@@H]3[C@@H]2CCN3C(=O)Cc2cccs2)o1 | -5.34%
52 | CCc1cnc(N2CCc3cc(C(=O)NC)c(N(C)C)nc3CC2)nc1 | -13.6%

Row | Compound | cytotoxicity at 70.5 h
53 | Cc1ccc(CN2CC[C@H]3OCC[C@@]3(COCC(=O)N(C)C)C2)s1 | 15.2%
54 | Fc1cccc(-c2nnn3c2COC(CNCc2nccs2)C3)c1 (configuration not stated) | 14.6%
55 | COC[C@@]12CCO[C@@H]1CCN(Cc1ccc(C)s1)C2 | 15.9%
56 | O=C([C@@H]1COC[C@H]2CN(C3CCCC3)C[C@H]21)N1CCC(F)CC1 | -1.78%
57 | COC[C@@]12CCO[C@@H]1CCN(Cc1ccccc1OC)C2 | -12.9%
58 | c1ccc(NC[C@@H]2CCC[C@@H]3CN(c4ncccn4)C[C@@H]32)nc1 | -13.7%
59 | CC(C)COC1CC2(CCN(C(=O)Cc3ccccn3)CC2)C1 | -11.8%
60 | O=C([C@H]1COC[C@H]2CN(C3CCCCC3)C[C@H]21)N1CCOCC1 | -9.52%
61 | O=C(NC1CC1)[C@H]1CC[C@@H]2[C@@H](CCN2CCOCc2ccccc2)O1 | -8.73%
62 | Cn1ccc(C(=O)N2C[C@@H]3CCN(c4cnccn4)C[C@@H]3C2)n1 | -9.79%
63 | Cc1ccc(N2CC[C@H]3CN(C(=O)c4ccn(C)n4)C[C@H]3C2)nn1 | -7.56%
64 | CNC(=O)[C@H]1C[C@@H]2CN(Cc3c(C)noc3C)C[C@@H]2N1C(C)=O | -3.36%
65 | CCCN1CC[C@@H]2[C@@H](CO[C@H]2CNC(=O)c2nccn2C)C1 | -5.44%
66 | O=C1[C@@H]2CN(Cc3ccccn3)C[C@H]2CCN1c1cncnc1 | -4.74%
67 | Cc1cc(CN2CC[C@]3(C[C@@H](OCC(=O)N(C)C)CO3)C2)no1 | -6.96%
68 | Cn1cc(-c2ncc3c(c2C(=O)O)CCN(Cc2ccccn2)C3)cn1 | -1.31%
69 | COCC1CN(CCOc2ccc(Cl)cc2)Cc2c1cnn2C (configuration not stated) | -6.25%
70 | COCCn1c2c(ccc1=O)CC(NCc1cccnc1OC)CC2 (configuration not stated) | -13.6%
71 | Cc1cccc(CN2CC[C@@H]3[C@@H]2CCN3C(=O)Cc2ccsc2)n1 | -22.6%
72 | CN(C)C[C@]12COC[C@H]1CN(Cc1ccc3c(c1)OCO3)C2 | -2.79%
73 | Cc1ccc(CN2CC[C@@H]3[C@@H](CO[C@H]3CN(C)C)C2)o1 | -5.5%
74 | Cn1cc(N2C[C@@H]3CN(Cc4ccccn4)C[C@@H]3C2=O)cn1 | 24.4%
75 | CNC(=O)[C@@H]1C[C@H]2CN(Cc3c(C)noc3C)C[C@H]2N1C(C)C | -7.3%
76 | CCCN1CCC(c2nc3ccc(NCc4ccccc4)cn3n2)CC1 | -1.96%
77 | CC(C)CCN1CCc2[nH]nc(C(=O)N3CC=CC3)c2C1 | -6.59%
